Measured values from patent US20230398178A1, “METHODS AND COMPOSITIONS FOR TREATING OR PREVENTING A VAGINAL INFECTION OF GARDNERELLA VAGINALIS” (Massachusetts Institute of Technology, priority 2022, published 2023).
“Also recorded” adds a separate entry of the source.

Tested on: vaginolysin (vly)
Format: cell-based, Gardnerella vaginalis

## C[C@@H](O)[C@H](O)[C@H](O)[C@@H](O)C=O [D-fucose, 6-deoxy-D-galactose]
  effect on vly expression, in words: expressed less vaginolysin; also recorded: significantly reduce vly expression
